Measured values published in patent publication US20230038623A1, “NOVEL SKIN CARE COMPOSITION” (BEIERSDORF AG, priority 2019, published 2023).

What was measured:
C. acnes strain C3 = assay: Evaluation of the minimum inhibitory concentration (MIC) of cosmetic excipients; format: cell-based, Cutibacterium acnes; conditions: MIC (% w/vol) at which compound starts interfering with growth, anaerobic, 3 days, 37° C., scored by turbidity
Procedure: (§1) In microbiology, the MIC is the lowest concentration of a chemical which prevents visible growth of bacterium. The resulted MIC value depends both on the microorganism and the test compound. The MIC is determined by preparing concentrations series of the test compound in vitro, incubating the solutions with the separate batches of cultured bacteria, and measuring the results using agar dilution or broth microdilution. For the experiments with C. acnes strains C3 and K8, media comprising yeast extract soy peptone and dextrose were used. The MIC is determined by turbidity.
(§2) A total of 125 cosmetic excipients were tested for their compatibility with C. acnes strains C3 and K8. Hydrophilic compounds were tested in a 96-well plate liquid broth format, poorly soluble compounds were pre-dissolved in DMSO before dilution in liquid broth and hydrophobic or solid compounds were tested in an agar well diffusion test assay. The different dilutions of the test excipients in media were prepared in Falcon tubes and then distributed in a deep well plate using a multistepper. Each well received 1.2 ml and was subsequently inoculated with 120 μl of C. acnes bacteria suspension (strain C3 and K8). From the deep well plate 200 μl were transferred in each well of a clear 96 well replicate plate. The leftover was discarded. The plates were then incubated anaerobically for 3 days at 37° C. Following incubation, the test plates were visually examined and wells were scored for growth or complete growth inhibition to define the minimum inhibitory concentration.
(§3) These excipients are listed in the below table with their compatibility values for C. acnes strains C3 and K8. The compatibility values represent the MIC value of the listed ingredients with the tested C. acnes strains. At this concentration [% w/vol] the tested compound starts interfering with the growth of the tested strains. The compounds can be used in formulations at concentrations below this concentration.

C. acnes strain K8 = assay: as above; format: cell-based, Cutibacterium acnes; conditions: MIC (% w/vol) at which compound starts interfering with growth, anaerobic, 3 days, 37° C., scored by turbidity
Procedure: as §1, §2, §3

Compound | COMPATABILITY VALUE C3 [%] (C. acnes strain C3) | COMPATABILITY VALUE K8 [%] (C. acnes strain K8)
CCCCCCC(O)CO (centres unmarked) [caprylyl glycol] | 0.18% | 0.18%
CC(CO)CO [methylpropanediol] | 4.00% | 4.00%
ethylhexyl cocoate | 10.00% | 10.00%
tocopherol | 1.50% | 1.50%
